What was measured:
[1] = molecular target: T1, Protein arginine N-methyltransferase 7 (Homo sapiens, UniProt Q9NVM4); assay: Inhibition of N-terminal FLAG-tagged recombinant human PRMT7 extracted from baculovirus infected Sf9 cells using Histone H4 (1 to 21) peptide as substrate preincubated for 15 mins followed by [3H]-SAM and substrate addition and measured after 180 mins by microplate counter analysis
T1 sequence (Q9NVM4 whole entry): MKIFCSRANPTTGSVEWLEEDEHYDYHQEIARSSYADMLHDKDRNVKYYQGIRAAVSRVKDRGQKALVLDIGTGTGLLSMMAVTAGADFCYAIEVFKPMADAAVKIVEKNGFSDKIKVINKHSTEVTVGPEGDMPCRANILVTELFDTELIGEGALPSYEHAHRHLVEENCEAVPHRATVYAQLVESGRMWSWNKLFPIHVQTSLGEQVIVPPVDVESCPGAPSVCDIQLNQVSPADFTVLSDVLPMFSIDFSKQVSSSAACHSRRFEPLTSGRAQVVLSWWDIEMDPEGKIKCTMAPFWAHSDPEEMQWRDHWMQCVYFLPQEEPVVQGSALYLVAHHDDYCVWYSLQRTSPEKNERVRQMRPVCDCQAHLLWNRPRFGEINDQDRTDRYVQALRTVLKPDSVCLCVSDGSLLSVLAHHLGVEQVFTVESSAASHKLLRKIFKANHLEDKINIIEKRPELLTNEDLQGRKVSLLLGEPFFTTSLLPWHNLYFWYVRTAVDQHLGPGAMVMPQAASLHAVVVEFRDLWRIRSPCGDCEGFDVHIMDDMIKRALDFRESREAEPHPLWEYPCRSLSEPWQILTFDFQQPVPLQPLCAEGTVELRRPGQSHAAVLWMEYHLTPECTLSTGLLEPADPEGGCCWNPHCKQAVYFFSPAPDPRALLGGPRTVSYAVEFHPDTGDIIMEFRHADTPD

[2] = molecular target: T1, Protein arginine N-methyltransferase 7; assay: Binding affinity to N-terminal GST-tagged recombinant full length human PRMT7 extracted from baculovirus infected Sf9 cells assessed as dissociation constant by SPR analysis
VCaP = assay: Antiproliferative activity against human VCaP cells assessed as reduction in cell viability incubated for 48 hrs by CCK8 assay; type: functional, cell-based
PC-3 = assay: Antiproliferative activity against human PC-3 cells assessed as reduction in cell viability incubated for 48 hrs by CCK8 assay; type: functional, cell-based; conditions: PC-3, 48 h
DU-145 [3] = assay: Antitumor activity against human DU-145 cells xenografted in male BALB/c nude mouse assessed as tumor growth inhibition at 20 mg/kg, ip relative to control; conditions: DU-145, read-out: TGI
CWR22R = assay: Antiproliferative activity against human 22Rv1 cells assessed as reduction in cell viability incubated for 48 hrs by CCK8 assay; type: functional, cell-based; conditions: 22Rv1, 48 h
DU-145 [4] = assay: Antiproliferative activity against human DU-145 cells assessed as reduction in cell viability incubated for 48 hrs by CCK8 assay; type: functional, cell-based; conditions: DU-145, 48 h
[5] = molecular target: Protein arginine N-methyltransferase 1 (Homo sapiens, UniProt Q99873); assay: Inhibition of N-terminal FLAG-tagged recombinant full length human PRMT1 extracted from baculovirus expression system preincubated for 10 mins followed by substrate addition and measured after 3 hrs by MTase-Glo detection reagent based luminescence analysis
Sequence of Protein arginine N-methyltransferase 1 (Q99873 whole entry): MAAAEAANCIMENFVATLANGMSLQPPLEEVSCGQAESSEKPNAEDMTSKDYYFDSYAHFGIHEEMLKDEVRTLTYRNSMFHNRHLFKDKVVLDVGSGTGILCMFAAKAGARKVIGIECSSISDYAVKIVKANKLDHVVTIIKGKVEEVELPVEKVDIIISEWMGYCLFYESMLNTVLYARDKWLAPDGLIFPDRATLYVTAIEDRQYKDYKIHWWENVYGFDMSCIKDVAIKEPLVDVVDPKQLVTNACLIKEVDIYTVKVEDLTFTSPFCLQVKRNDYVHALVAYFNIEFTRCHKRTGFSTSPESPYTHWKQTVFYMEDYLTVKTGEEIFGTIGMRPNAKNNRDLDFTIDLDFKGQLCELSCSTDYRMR

[6] = molecular target: T2, Histone-arginine methyltransferase CARM1 (Homo sapiens, UniProt Q86X55); assay: Inhibition of N-terminal FLAG-tagged recombinant full length human PRMT4 extracted from baculovirus expression system preincubated for 10 mins followed by substrate addition and measured after 3 hrs by MTase-Glo detection reagent based luminescence analysis
T2 sequence (Q86X55 whole entry): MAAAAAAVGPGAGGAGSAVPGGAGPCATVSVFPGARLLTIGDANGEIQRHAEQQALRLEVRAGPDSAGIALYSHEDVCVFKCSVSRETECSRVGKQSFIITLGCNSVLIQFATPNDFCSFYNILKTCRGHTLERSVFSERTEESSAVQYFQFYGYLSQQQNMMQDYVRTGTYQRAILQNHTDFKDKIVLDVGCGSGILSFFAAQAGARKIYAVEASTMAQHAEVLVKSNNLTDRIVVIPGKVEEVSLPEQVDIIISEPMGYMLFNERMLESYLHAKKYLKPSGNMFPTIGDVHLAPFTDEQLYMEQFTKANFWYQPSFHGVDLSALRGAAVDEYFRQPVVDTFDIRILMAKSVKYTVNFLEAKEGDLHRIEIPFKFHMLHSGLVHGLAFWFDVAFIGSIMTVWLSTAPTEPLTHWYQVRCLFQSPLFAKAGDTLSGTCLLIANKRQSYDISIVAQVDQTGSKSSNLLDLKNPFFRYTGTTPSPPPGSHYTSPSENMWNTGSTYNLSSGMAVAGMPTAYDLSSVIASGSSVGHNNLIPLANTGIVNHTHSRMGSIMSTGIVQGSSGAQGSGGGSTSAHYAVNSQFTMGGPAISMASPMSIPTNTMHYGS

[7] = molecular target: T3, Protein arginine N-methyltransferase 9 (Homo sapiens, UniProt Q6P2P2); assay: Inhibition of PRMT9 (unknown origin) incubated overnight by Alphascreen microplate reader
T3 sequence (Q6P2P2 whole entry): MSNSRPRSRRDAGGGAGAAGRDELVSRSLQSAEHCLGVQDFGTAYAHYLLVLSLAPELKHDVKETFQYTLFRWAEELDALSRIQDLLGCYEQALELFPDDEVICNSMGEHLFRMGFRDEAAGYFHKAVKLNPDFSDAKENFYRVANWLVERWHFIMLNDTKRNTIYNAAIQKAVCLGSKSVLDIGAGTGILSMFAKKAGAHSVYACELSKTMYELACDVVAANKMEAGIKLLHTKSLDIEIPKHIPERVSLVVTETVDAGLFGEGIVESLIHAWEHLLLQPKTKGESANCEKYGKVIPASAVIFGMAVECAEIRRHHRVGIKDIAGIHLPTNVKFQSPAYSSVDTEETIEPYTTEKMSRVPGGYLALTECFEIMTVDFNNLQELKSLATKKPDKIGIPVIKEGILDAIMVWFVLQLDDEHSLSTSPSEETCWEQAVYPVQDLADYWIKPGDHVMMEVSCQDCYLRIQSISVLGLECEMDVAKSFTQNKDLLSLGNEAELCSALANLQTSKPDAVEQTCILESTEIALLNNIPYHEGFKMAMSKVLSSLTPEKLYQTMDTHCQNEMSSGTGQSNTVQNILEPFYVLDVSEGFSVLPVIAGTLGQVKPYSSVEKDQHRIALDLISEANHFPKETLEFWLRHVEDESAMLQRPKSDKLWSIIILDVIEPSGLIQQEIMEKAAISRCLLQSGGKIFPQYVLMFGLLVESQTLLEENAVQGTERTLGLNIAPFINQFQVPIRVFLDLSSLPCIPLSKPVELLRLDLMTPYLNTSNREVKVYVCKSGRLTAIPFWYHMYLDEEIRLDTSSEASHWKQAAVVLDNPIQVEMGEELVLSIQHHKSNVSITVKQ

[8] = molecular target: Protein arginine N-methyltransferase 8 (Homo sapiens, UniProt Q9NR22); assay: Inhibition of N-terminal His-tagged human PRMT8 (61 to 394 residues) extracted from Escherichia coli preincubated for 10 mins followed by substrate addition and measured after 3 hrs by MTase-Glo detection reagent based luminescence analysis
Sequence of Protein arginine N-methyltransferase 8 (Q9NR22 whole entry, the tested form may be a part): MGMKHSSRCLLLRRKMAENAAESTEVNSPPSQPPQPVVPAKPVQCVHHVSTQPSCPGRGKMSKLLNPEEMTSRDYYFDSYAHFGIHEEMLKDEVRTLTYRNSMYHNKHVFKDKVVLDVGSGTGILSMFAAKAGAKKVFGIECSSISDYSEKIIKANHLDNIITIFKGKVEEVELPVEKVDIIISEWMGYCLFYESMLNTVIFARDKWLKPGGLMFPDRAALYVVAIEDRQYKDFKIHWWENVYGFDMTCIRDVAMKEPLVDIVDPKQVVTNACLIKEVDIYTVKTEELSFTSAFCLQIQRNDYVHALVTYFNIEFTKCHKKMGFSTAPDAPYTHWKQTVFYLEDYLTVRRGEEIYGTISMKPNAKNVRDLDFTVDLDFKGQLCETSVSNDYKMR

[9] = molecular target: Protein arginine N-methyltransferase 3 (Homo sapiens, UniProt O60678); assay: Inhibition of N-terminal His-tagged recombinant human PRMT3 (2 to 531 residues) extracted from Escherichia coli preincubated for 10 mins followed by substrate addition and measured after 3 hrs by MTase-Glo detection reagent based luminescence analysis
Sequence of Protein arginine N-methyltransferase 3 (O60678 whole entry, the tested form may be a part): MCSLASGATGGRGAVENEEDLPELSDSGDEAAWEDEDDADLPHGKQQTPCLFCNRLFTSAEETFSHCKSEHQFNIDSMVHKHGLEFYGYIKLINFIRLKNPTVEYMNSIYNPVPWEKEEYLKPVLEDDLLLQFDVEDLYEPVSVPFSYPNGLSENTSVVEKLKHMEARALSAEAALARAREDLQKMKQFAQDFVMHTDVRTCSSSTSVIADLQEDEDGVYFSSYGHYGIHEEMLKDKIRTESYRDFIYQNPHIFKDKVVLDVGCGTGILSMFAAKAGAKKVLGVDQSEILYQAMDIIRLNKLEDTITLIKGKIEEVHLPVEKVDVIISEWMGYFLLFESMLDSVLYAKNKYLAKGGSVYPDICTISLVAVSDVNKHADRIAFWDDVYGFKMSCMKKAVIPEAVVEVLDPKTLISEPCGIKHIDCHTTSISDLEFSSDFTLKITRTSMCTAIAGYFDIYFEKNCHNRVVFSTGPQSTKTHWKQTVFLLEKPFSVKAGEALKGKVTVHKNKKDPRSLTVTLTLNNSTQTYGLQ

[10] = molecular target: Protein arginine N-methyltransferase 6 (Homo sapiens, UniProt Q96LA8); assay: Inhibition of PRMT6 (unknown origin) preincubated for 10 mins followed by substrate addition and measured after 3 hrs by MTase-Glo detection reagent based luminescence analysis
Sequence of Protein arginine N-methyltransferase 6 (Q96LA8 whole entry): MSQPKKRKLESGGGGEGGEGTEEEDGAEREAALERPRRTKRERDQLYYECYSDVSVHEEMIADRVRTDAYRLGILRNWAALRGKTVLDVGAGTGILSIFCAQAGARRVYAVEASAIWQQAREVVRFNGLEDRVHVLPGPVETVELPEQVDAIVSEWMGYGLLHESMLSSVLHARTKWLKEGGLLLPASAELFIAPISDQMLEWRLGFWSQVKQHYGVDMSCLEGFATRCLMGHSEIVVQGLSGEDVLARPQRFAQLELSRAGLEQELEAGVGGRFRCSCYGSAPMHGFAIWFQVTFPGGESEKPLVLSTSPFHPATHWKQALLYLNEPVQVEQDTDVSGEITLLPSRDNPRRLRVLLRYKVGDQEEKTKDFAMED

Row | Structure (SMILES) | IC50 [1] [µM] | Kd [2] [µM] | IC50 (VCaP) [µM] | IC50 (PC-3) [µM] | inhibition in vivo at 20 mg/kg (DU-145 [3]) [%] | IC50 (CWR22R) [µM] | IC50 (DU-145 [4]) [µM] | IC50 [5] [µM] | IC50 [6] [µM] | IC50 [7] [µM] | IC50 [8] [µM] | IC50 [9] [µM] | IC50 [10] [µM]
1 | COc1cc(-c2ncc(F)c(Nc3ccc4nc(C)cc(N)c4c3)n2)cc(OC)c1OC | 9.91 | 7.12 | 1.66 | 1.13 | 40.3 | 1.32 | 1.47 | – | – | – | – | – | –
2 | COc1cc(-c2ccc3ncc(Nc4ccc(N(C)C)cc4)nc3c2)cc(OC)c1OC | 26 | – | – | – | – | – | – | – | – | – | – | – | –
3 | COc1cc(-c2nc(Nc3ccc4nc(C)cc(N)c4c3)c3sccc3n2)cc(OC)c1OC | – | – | – | – | – | – | – | > 100 | > 100 | > 100 | > 100 | > 100 | > 100

— ChEMBL document CHEMBL6109154, “Development of Novel PRMT7 Inhibitors for the Treatment of Prostate Cancer” (J Med Chem, 2025)
